Experimental data taken from patent publication US11141496B2, “Use of berberine or derivative thereof in preparing myocardial perfusion imaging agent” (WEST CHINA HOSPITAL, SICHUAN UNIVERSITY, priority 2017, dated 2021).

Columns and labels:
[1] = tested on: mitochondria of SD neonatal rat primary cardiomyocytes; assay: [^19F]HX-01 localization with red mitochondrial probe M7513 in primary cardiomyocytes; type: cell-based; conditions: 4 μM, 10 min, cardiomyocytes and surrounding mixed cells
Description: The suspension of primary myocardial cells of SD suckling mice was adjusted to the concentration of 20×10^4/ml, inoculated in a six-well plate, with 2 ml for each well, and then incubated at 37° C. in 5% CO2 under saturated humidity for 24 h. After adherence, the DMEM high glucose medium in each well was aspirated and discarded, and DMEM high glucose medium containing different concentrations of [^19F]HX-01 (6.25, 12.5, 25, 50, 100, 150, and 200 μM) was firstly added, with 2 ml for each well, and each concentration has three replicate wells. After incubation at 37° C. in 5% CO2 under saturated humidity for 1 h, the liquid in each well was aspirated and removed. […] After the wells were washed three times with PBS, the cells were finally observed under a confocal fluorescence microscope with an excitation wavelength of 488 nm.
In order to further clarify the localization characteristics of [^19F]HX-01 in the subcellular organelles of SD rat primary cardiomyocytes, after addition of above different concentrations of [^19F]HX-01 and incubation for 1 h, the medium was discarded, and each well was rinsed with PBS three times. Each well was added the medium containing mitochondrial specific probe with red fluorescence (Mito Tracker Red (M7513), Thermo fisher) and incubated for another 10 min, the medium was removed, and each well was rinsed with PBS three times. […]

[2] = tested on: rat cardiomyocytes H9C2; assay: [^18F]HX-01 uptake in H9C2 cells, with and without CCCP (γ counter); type: cell-based
Description: As described in method 1.4.4, the suspension of rat cardiomyocytes H9C2, NIH3T3 cells and SD neonatal rat primary cardiomyocytes was adjusted to the concentration of 20×10^4/ml, inoculated in a six-well plate, with 2 ml for each well (containing 4×10^5 cells), and the experimental group and CCCP inhibition group were included, The plate was cultured at 37° C. in 5% CO2 under saturated humidity for 24 h. After the cells adhered, 30 minutes before addition of [^18F]HX-01, the DMEM high-glucose medium in the Petri dish was aspirated and discarded. DMEM high-glucose medium containing CCCP (0.5 μM) was firstly added at 2 ml/well to the cell culture dish in CCCP inhibition group, while an equal volume of DMEM high-glucose medium without CCCP was added to the cell culture dish in the experimental groups, and the dish was incubated at 37° C. in 5% CO2 under saturated humidity for 30 min. Then, 100 μl solution of [^18F]HX-01 dissolved in saline was added to each well at a dose of 2.5 μCi. The plate was incubated at 37° C. in 5% CO2 under saturation humidity. […] After digestion with 0.25% trypsin, all cells were collected in the radioimmunotubes, and the radioactivity counts of the liquid and cells in the wells were measured with a γ counter, and the data were recorded. […]

[3] = tested on: mouse fibroblasts NIH3T3; assay: [^18F]HX-01 uptake in NIH3T3 cells, with and without CCCP (γ counter); type: cell-based
Description: (§1) As described in method 1.4.4, the suspension of rat cardiomyocytes H9C2, NIH3T3 cells and SD neonatal rat primary cardiomyocytes was adjusted to the concentration of 20×10^4/ml, inoculated in a six-well plate, with 2 ml for each well (containing 4×10^5 cells), and the experimental group and CCCP inhibition group were included, The plate was cultured at 37° C. in 5% CO2 under saturated humidity for 24 h. After the cells adhered, 30 minutes before addition of [^18F]HX-01, the DMEM high-glucose medium in the Petri dish was aspirated and discarded. DMEM high-glucose medium containing CCCP (0.5 μM) was firstly added at 2 ml/well to the cell culture dish in CCCP inhibition group, while an equal volume of DMEM high-glucose medium without CCCP was added to the cell culture dish in the experimental groups, and the dish was incubated at 37° C. in 5% CO2 under saturated humidity for 30 min. Then, 100 μl solution of [^18F]HX-01 dissolved in saline was added to each well at a dose of 2.5 μCi. The plate was incubated at 37° C. in 5% CO2 under saturation humidity. After incubation for 5 min, 10 min, 30 min, 60 min and 120 min, the liquid in the well was collected, and rinsed 3 times with PBS, and all the rinse liquid was collected in the radioimmunotubes. After digestion with 0.25% trypsin, all cells were collected in the radioimmunotubes, and the radioactivity counts of the liquid and cells in the wells were measured with a γ counter, and the data were recorded. Three replicate holes were set for each time point.

[4] = SD rat myocardial infarction model, 350 μCi/rat, up to 120 min
[5] = tested on: SD neonatal rat primary cardiomyocytes; assay: [^18F]HX-01 uptake in SD neonatal rat primary cardiomyocytes, with and without CCCP (γ counter); type: cell-based
Description: as §1

[6] = Competitive inhibition test of [^18F]HX-01 and non-radioactive standard [^19F]HX-01 (PET); type: in vivo, New Zealand white rabbit; conditions: [^19F]HX-01 1 nmol/kg i.v. 30 min before tracer
Description: After anesthesia and fixation, the male New Zealand white rabbits were set as their own control (n=3). On the first day, 2 ml saline was injected into the ear marginal vein of the rabbits. Then, the tracer [^18F]HX-01 was injected, and the dosage was 0.5 mci/kg, and PET scanning was performed immediately as described in 1.4.2. On the second day, non-radioactive standard [^19F]HX-01 was injected through ear edge vein, and the dose of standard substance was 1 nmol/kg, that was dissolved in 2 ml normal saline. 30 min After injection of non-radioactive standard [^19F]HX-01, the tracer [^18F]HX-01 was injected, and the injection doe was 0.5 mCi/kg. After the injection, PET dynamic scanning was performed as described in 1.4.2. […] Using Compassview 5.0 to analyze and process the data, the brain, heart, liver, lung, kidney, bone and muscle of the region of interest (ROI) were drawn on the horizontal axis, and SUVmax was recorded.

[7] = rabbit, in vivo

ClCc1ccc(C2=c3cc4c5c(c3Oc3c2cc2c6c3CCCN6CCC2)CCC[N+]=5CCC4)cc1.[Cl-] [M7513]
distribution of red fluorescence of the probe [1]: appeared in the mitochondria of all cells in a granular distribution

COc1c(OCCC[18F])ccc2cc3[n+](cc12)CCc1cc2c(cc1-3)OCO2.[Cl-] [[^18F]HX-01]
uptake percentage (peak value) ([2]; 120 min, 2.5 μCi per well): 2.89%±0.11%
uptake percentage, control group vs CCCP inhibition group ([2]; CCCP 0.5 μM 30 min before tracer): didn't show significant difference in the uptake percentage
uptake percentage ([3]; 5 min): 0.78±0.06
uptake percentage ([3]; 120 min): 0.91±0.01
uptake, normal group vs CCCP inhibition group ([3]; CCCP 0.5 μM, p>0.05): did not show a significant difference
Micro PET image of anterior wall of left ventricle near apical area (infarction) [4]: showed a fixed radioactive defect
uptake percentage ([5]; 30 min): 2.08%±0.13%
uptake percentage (peak value) ([5]; 120 min): 2.41%±0.03%
intake percentage, normal group vs CCCP inhibition group ([5]; CCCP 0.5 μM, p>0.05): no significant difference in the intake percentage
kidney uptake (SUVmax), inhibition group vs control group [6]: no statistical significance between the two groups
liver uptake (SUVmax), inhibition group vs control group [6]: no statistical significance between the inhibition group and the control group
myocardial uptake (SUVmax), inhibition group vs control group ([6]; P<0.001): SUVmax value was obviously reduced
lung, bone, muscle and brain uptake (SUVmax), inhibition group vs control group ([6]; P>0.05): not statistically significant
SUVmax ratio of heart/lung [7]: greater than 10
SUVmax ratio of heart/muscle [7]: greater than 10
uptake in other tissues such as brain, lung, muscle and bone [7]: extremely low
